Measured values: publication PMC7216583 (Parasites & Vectors, 2020)
Counter-ions that a name gives are not always drawn. Like-named read-outs stand apart in the source and are kept apart here.

Experiments:
V1 receptor = target: V1 receptor; parameters: method as in vendor brief description; conditions: ref vendor brief description; cited from earlier work
V2 receptor = target: V2 receptor; parameters: method as in vendor brief description; conditions: ref vendor brief description; cited from earlier work
[1] = system: Toxoplasma gondii RH-2F tachyzoites; experiment: microbe, parasite or virus in culture; conditions: 72 h
β-adrenoceptor = target: β-adrenoceptor; parameters: method as in vendor brief description; conditions: ref vendor brief description; cited from earlier work
GSK-3β = system: GSK-3β; parameters: method as in vendor brief description; conditions: ref vendor brief description; cited from earlier work
CYP3A4 (P450) = system: CYP3A4 (P450); parameters: method as in vendor brief description; conditions: ref vendor brief description; cited from earlier work
AhR = conditions: cited from earlier work
in vitro = conditions: human; for viability at 72 h: Host viability (%) mean
IKK-2 = system: IKK-2; parameters: method as in vendor brief description; conditions: ref vendor brief description; cited from earlier work
IKK complex = system: IKK complex; parameters: method as in vendor brief description; conditions: ref vendor brief description; cited from earlier work
IKK-1 = system: IKK-1; parameters: method as in vendor brief description; conditions: ref vendor brief description; cited from earlier work
GluR1 and GluR3 = system: GluR1 and GluR3; parameters: method as in vendor brief description; conditions: ref vendor brief description; cited from earlier work
CETP = system: CETP; parameters: method as in vendor brief description; conditions: ref vendor brief description; cited from earlier work
mGlu5 receptor = target: mGlu5 receptor; parameters: method as in vendor brief description; conditions: ref vendor brief description; cited from earlier work
VEGFR-2 = system: VEGFR-2; parameters: method as in vendor brief description; conditions: ref vendor brief description; cited from earlier work
ChK2 = system: ChK2; parameters: method as in vendor brief description; conditions: ref vendor brief description; cited from earlier work
Yes = system: Yes; parameters: method as in vendor brief description; conditions: ref vendor brief description; cited from earlier work
Fms = system: Fms; parameters: method as in vendor brief description; conditions: ref vendor brief description; cited from earlier work
matriptase = target: matriptase; parameters: method as in vendor brief description; conditions: ref vendor brief description; cited from earlier work
[2] = system: human neutrophil elastase; parameters: method as in vendor brief description; conditions: ref vendor brief description; cited from earlier work
LPA1 [3] = target: LPA1; parameters: method as in vendor brief description; conditions: ref vendor brief description; read-out: Ki LPA1-induced inositol phosphate production; cited from earlier work
LPA3 [4] = target: LPA3; parameters: method as in vendor brief description; conditions: ref vendor brief description; read-out: Ki LPA3-induced inositol phosphate production; cited from earlier work
LPA1 [5] = target: LPA1; parameters: method as in library vendor description; conditions: ref library vendor description; cited from earlier work
LPA2 = target: LPA2; parameters: method as in library vendor description; conditions: ref library vendor description; cited from earlier work
LPA3 [6] = target: LPA3; parameters: method as in library vendor description; conditions: ref library vendor description; cited from earlier work
CA IX = system: CA IX; parameters: method as in vendor brief description; conditions: ref vendor brief description; cited from earlier work
CA XII = system: CA XII; parameters: method as in vendor brief description; conditions: ref vendor brief description; cited from earlier work
P2Y6 receptor = conditions: read-out: IC50 P2Y6 receptor; ref vendor brief description; cited from earlier work
[7] = target: angiotensin II type 1 (AT1) receptor; parameters: method as in vendor brief description; conditions: ref vendor brief description; cited from earlier work
proteasome = system: proteasome; parameters: method as in vendor brief description; conditions: ref vendor brief description; cited from earlier work
Mdm2 = system: Mdm2; parameters: method as in library vendor description; conditions: ref library vendor description; cited from earlier work
5-HT7 receptor = target: 5-HT7 receptor; parameters: method as in vendor brief description; conditions: ref vendor brief description; cited from earlier work
dopamine D2 = system: dopamine D2; parameters: method as in vendor brief description; conditions: ref vendor brief description; cited from earlier work
5-HT2A = system: 5-HT2A; parameters: method as in vendor brief description; conditions: ref vendor brief description; cited from earlier work
5-HT1A = system: 5-HT1A; parameters: method as in vendor brief description; conditions: ref vendor brief description; cited from earlier work
noradrenaline α2C = system: noradrenaline α2C; parameters: method as in vendor brief description; conditions: ref vendor brief description; cited from earlier work
RGS4 = system: RGS4; parameters: method as in vendor brief description; conditions: ref vendor brief description; cited from earlier work
[8] = target: HIV reverse transcriptase; parameters: method as in vendor brief description; conditions: ref vendor brief description; cited from earlier work
[9] = target: HIF-1α prolyl hydroxylase-2 (PHD2); parameters: method as in vendor brief description; conditions: ref vendor brief description; cited from earlier work
HSP90α = conditions: read-out: IC50 HSP90α; ref library vendor description; cited from earlier work
5-HT4a = target: 5-HT4a; parameters: method as in vendor brief description; conditions: ref vendor brief description; cited from earlier work
5-HT4b = target: 5-HT4b; parameters: method as in vendor brief description; conditions: ref vendor brief description; cited from earlier work
mGlu4 = system: mGlu4; parameters: method as in vendor brief description; conditions: ref vendor brief description; cited from earlier work
Src = system: Src; parameters: method as in vendor brief description; conditions: ref vendor brief description; cited from earlier work
VEGFR1 = system: VEGFR1; parameters: method as in vendor brief description; conditions: ref vendor brief description; cited from earlier work
Abl = system: Abl; parameters: method as in vendor brief description; conditions: ref vendor brief description; read-out: IC50 Abl; cited from earlier work
[10] = target: histamine 1 (H1) receptor; parameters: method as in vendor brief description; conditions: ref vendor brief description; cited from earlier work
PAFR = target: PAFR; parameters: method as in vendor brief description; conditions: ref vendor brief description; cited from earlier work
Factor Xa = system: Factor Xa; parameters: method as in vendor brief description; conditions: ref vendor brief description; cited from earlier work
GSK-3α = system: GSK-3α; parameters: method as in vendor brief description; conditions: ref vendor brief description; cited from earlier work
PARP2 = system: PARP2; parameters: method as in library vendor description; conditions: ref library vendor description; cited from earlier work
NOD1 = system: NOD1; parameters: method as in vendor brief description; conditions: ref vendor brief description; cited from earlier work
[11] = read-out: Parasite inhibition (%) mean, preliminary screen of compound library, mean
[12] = read-out: Parasite inhibition (%) mean, preliminary screen, mean

Cc1ccccc1C(=O)Nc1ccc(C(=O)N2CCCC(N(C)C)c3ccccc32)cc1 (stereo not drawn) [Mozavaptan]
IC50 (V1 receptor): 1200 nM
IC50 (V2 receptor): 14 nM
inhibition of growth at 5 µM [1, 11]: 3.1%

CCc1cc2c(cc1CC)CC(NC[C@H](O)c1ccc(O)c3[nH]c(=O)ccc13)C2 [Indacaterol Maleate]
pKi β-adrenoceptor (β-adrenoceptor): Indacaterol is an ultra-long-acting β-adrenoceptor agonist with pKi of 7.36.
inhibition of growth at 5 µM [1, 11]: -8.9%

Cn1sc(=O)n(Cc2ccccc2)c1=O [TDZD-8]
IC50 (GSK-3β): 2000 nM
inhibition of growth at 5 µM [1, 11]: 12.8%

Cc1ccc(-c2c(-c3nn(C)c4ncnc(N5CC[C@H](N6CCCCC6)C5)c34)cnn2C)cc1 [PF-4981517]
IC50 (CYP3A4 (P450)): 30 nM
inhibition of growth at 5 µM [1, 11]: -8.9%

CC(C)n1cnc2c(NCCc3ccc(O)cc3)nc(-c3csc4ccccc34)nc21 [StemRegenin 1]
IC50 (AhR): 127 nM
inhibition of growth at 5 µM [1, 11]: 0.2%

O=C(c1ccc(Nc2nccc(-c3cc4ccccc4s3)n2)cc1)N1CCC(N2CCCC2)CC1 [IKK-16]
viability at 72 h (in vitro): 10.7%
IC50 (IKK-2): 40 nM
IC50 (IKK complex): 70 nM
IC50 (IKK-1): 200 nM
inhibition of growth at 5 µM [1, 11]: 99.8%

NCCCCCNCC12CC3CC(CC(C3)C1)C2 [IEM 1754 dihydrobroMide]
IC50 (GluR1 and GluR3): 6000 nM
inhibition of growth at 5 µM [1, 11]: 15.8%

Cc1cc(C)c2c(c1)[C@@H](N(Cc1cc(C(F)(F)F)cc(C(F)(F)F)c1)c1nnn(C)n1)CCCN2C[C@H]1CC[C@H](C(=O)O)CC1 [Evacetrapib (LY2484595)]
IC50 (CETP): 5.5 nM
inhibition of growth at 5 µM [1, 11]: 22.6%

Cc1nc(C#Cc2ccnc(Cl)c2)c(C)n1-c1ccc(OC(F)(F)F)cc1 [CTEP]
IC50 (mGlu5 receptor): 2.2 nM
inhibition of growth at 5 µM [1, 11]: 2.4%

Cn1cc(-c2[nH]c3cc(NC(=O)[C@H](N)C4CCCCC4)cc4c3c2C=NNC4=O)cn1 [PF 477736]
IC50 (VEGFR-2): 8 nM
IC50 (ChK2): 47 nM
IC50 (Yes): 14 nM
IC50 (Fms): 10 nM
inhibition of growth at 5 µM [1, 11]: -0.5%

CN(C)C(=O)COC(=O)Cc1ccc(OC(=O)c2ccc(NC(=N)N)cc2)cc1 [Camostat Mesilate (FOY-305)]
IC50 (matriptase): 500 nM
IC50 [2]: 200 nM
inhibition of growth at 5 µM [1, 11]: 2.5%

Cc1noc(-c2ccc(CSCCC(=O)O)cc2)c1NC(=O)OC(C)c1ccccc1Cl (stereo not drawn) [Ki16425]
Ki (LPA1 [3]): 340 nM
Ki (LPA3 [4]): 930 nM
Ki (LPA1 [5]): 340 nM
Ki (LPA2): 6500 nM
Ki (LPA3 [6]): 930 nM
inhibition of growth at 5 µM [1, 12]: -25.5%

NS(=O)(=O)c1ccc(NC(=O)Nc2ccc(F)cc2)cc1 [U-104]
inhibition of growth at 5 µM [1, 11]: 5%

S=C=Nc1cccc(NC(=S)NCCCCNC(=S)Nc2cccc(N=C=S)c2)c1 [MRS 2578]
IC50 (P2Y6 receptor): 37 nM
inhibition of growth at 5 µM [1, 11]: 0.2%

CCOc1nc2cccc(C(=O)O)c2n1Cc1ccc(-c2ccccc2-c2nc(=O)o[nH]2)cc1 [Azilsartan (TAK-536)]
IC50 [7]: 2.6 nM
inhibition of growth at 5 µM [1, 11]: 4.6%

CC(C)C[C@H](NC(=O)[C@H](CCc1ccccc1)NC(=O)CN1CCOCC1)C(=O)N[C@@H](Cc1ccccc1)C(=O)N[C@@H](CC(C)C)C(=O)[C@@]1(C)CO1 [Carfilzomib (PR-171)]
IC50 (proteasome): < 5 nM
inhibition of growth at 5 µM [1, 11]: -3.5%

COc1ccc(C2=N[C@@H](c3ccc(Cl)cc3)[C@@H](c3ccc(Cl)cc3)N2C(=O)N2CCNC(=O)C2)c(OC(C)C)c1 [Nutlin-3]
inhibition of growth at 5 µM [1, 12]: -1.5%

O=C1[C@@H]2[C@H]3CC[C@H](C3)[C@@H]2C(=O)N1C[C@@H]1CCCC[C@H]1CN1CCN(c2nsc3ccccc23)CC1 [Lurasidone HCl, reference compound]
viability (in vitro): 86.9%
viability at 5 µM (in vitro): 86.9 ± 1.7%
IC50 (5-HT7 receptor): 0.495 nM
IC50 (5-HT2A): 2.03 nM
IC50 (5-HT1A): 6.75 nM
IC50 (noradrenaline α2C): 10.8 nM
inhibition at 5 µM ([1]; read-out: Parasite inhibition (%) Mean ± SD): 80.4 ± 1.5%

Cc1ccc(-n2sc(=O)n(Cc3ccc(F)cc3)c2=O)cc1 [CCG 50014]
IC50 (RGS4): 30 nM
inhibition of growth at 5 µM [1, 11]: 1.4%

Cc1cc(C)c(Nc2ccnc(Nc3ccc(C#N)cc3)n2)c(C)c1 [Dapivirine]
IC50 [8]: 24 nM
inhibition of growth at 5 µM [1, 11]: 0.8%

O=C(O)CNC(=O)c1c(O)c2ccccc2n(Cc2ccccc2)c1=O [IOX2]
IC50 [9]: 21 nM
inhibition of growth at 5 µM [1, 11]: 32.8%

CCNC(=O)c1noc(-c2cc(C(C)C)c(O)cc2O)c1-c1ccc(CN2CCOCC2)cc1 [AUY922 (NVP-AUY922)]
inhibition of growth at 5 µM [1, 12]: 8.2%

COCCCN1CCC(NC(=O)c2cc(Cl)c(N)c3c2OCC3)CC1 [Prucalopride]
Ki (5-HT4a): 2.5 nM
Ki (5-HT4b): 8 nM
inhibition of growth at 5 µM [1, 11]: -7.6%

O=C(Nc1cccc(Cl)c1)c1ccccn1 [VU 0364770]
EC50 (mGlu4): 1100 nM
inhibition of growth at 5 µM [1, 11]: 1.8%

COc1cc2ncnc(Nc3ccc(Cl)cc3F)c2cc1OC [ZM 306416]
viability at 72 h (in vitro; preliminary screen of compound library, mean): 76.6%
IC50 (Abl): 1300 nM
inhibition of growth at 5 µM [1, 11]: 70.2%

Cc1cncc(CN2CCC(=C3c4ccc(Cl)cc4CCc4cccnc43)CC2)c1 [Rupatadine Fumarate]
Ki [10]: 102 nM
Ki (PAFR): 550 nM
inhibition of growth at 5 µM [1, 11]: 0.2%

O=C(NCC1CN(c2ccc(N3CCOCC3=O)cc2)C(=O)O1)c1ccc(Cl)s1 (stereo not drawn) [Rivaroxaban (Xarelto)]
inhibition of growth at 5 µM [1, 11]: 0.4%

Cc1c[nH]c(-c2cnc(NCCNc3ccc(C#N)cn3)nc2-c2ccc(Cl)cc2Cl)n1 [CHIR-99021 (CT99021) HCl]
IC50 (GSK-3α): 10 nM
inhibition of growth at 5 µM [1, 11]: 43.9%

O=C(c1cc(Cc2n[nH]c(=O)c3ccccc23)ccc1F)N1CCN(C(=O)C2CC2)CC1 [Olaparib (AZD2281)]
IC50 (PARP2): 1 nM
inhibition of growth at 5 µM ([1]; read-out: Parasite inhibition (%) mean): 28.2%

Cc1ccc(S(=O)(=O)n2c(N)nc3ccccc32)cc1 [ML130]
IC50 (NOD1): 560 nM
inhibition of growth at 5 µM [1, 11]: 3.3%
